In patent US20240309003A1, “HETEROCYCLIC COMPOUNDS AS TRIGGERING RECEPTOR EXPRESSED ON MYELOID CELLS 2 AGONISTS AND METHODS OF USE” (Vigil Neuroscience, Inc., priority 2021, published 2024) one finds EC50 data, which are given here for ten compounds.

As a reminder, the EC50 is the midpoint of the concentration-response curve.

The target in this test is T1, human TREM2 (Homo sapiens, UniProt Q9NZC2).
T1 construct: expressed in transfected cells; host or cells: HEK293T
T1 sequence (Q9NZC2 19-230): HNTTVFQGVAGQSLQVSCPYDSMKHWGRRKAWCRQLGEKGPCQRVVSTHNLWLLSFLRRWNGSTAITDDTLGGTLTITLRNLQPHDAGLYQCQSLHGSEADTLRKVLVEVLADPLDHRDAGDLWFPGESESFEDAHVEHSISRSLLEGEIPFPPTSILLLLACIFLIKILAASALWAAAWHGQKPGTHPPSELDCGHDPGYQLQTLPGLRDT
T1 sequence (O43914 22-113 partner): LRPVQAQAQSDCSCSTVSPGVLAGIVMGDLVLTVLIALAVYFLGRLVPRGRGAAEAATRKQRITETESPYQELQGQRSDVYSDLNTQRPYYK
Kind of test: TREM2 agonist potency by cellular phosphorylation of Syk (AlphaLisa) in HEK293T-hTREM2 cells. It is filed as cell-based. Particulars: HEK293 cells expressing human TREM2 and DAP12, Table D-2. Summed up: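 Agonist EC50 from a variable-slope four-parameter fit of % activation, based on AlphaLisa phospho-Syk levels in lysates. Cells: HEK293T-hTREM2 (with DAP12), treated 45 min at room temperature with compound in assay buffer.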
(In general: Bead proximity is the source of the signal in Alpha formats.)
In turn, `Cc1nc2nc(N3C[C@@H](c4cnn(C)c4)O[C@@H](C4CC4)C3)nc(-c3ccc(F)cc3F)c2nc1C` [Example I-1674, (2S,6R)-2-cyclopropyl-4-[4-(2,4-difluorophenyl)-6,7-dimethyl-pteridin-2-yl]-6-(1-methylpyrazol-4-yl)morpholine] came in with an EC50 of 0.05 to 0.5 µM.
With `Cc1nc2nc(N3C[C@@H](C)O[C@@H](c4cnn(CCO)c4)C3)nc(-c3ccc(Cl)cc3F)c2nc1C` [Example I-1686, 2-(4-((2S,6R)-4-(4-(4-chloro-2-fluorophenyl)-6,7-dimethylpteridin-2-yl)-6-methylmorpholin-2-yl)-1H-pyrazol-1-yl)ethan-1-ol], the EC50 was under 0.05 µM.
Compound `Cc1nc2nc([C@H]3CCO[C@H](c4cnc(C5CC5)o4)C3)nc(-c3ccc(F)cc3F)c2nc1C` [Example I-1698, 2-cyclopropyl-5-[(2S,4S)-4-[4-(2,4-difluorophenyl)-6,7-dimethyl-pteridin-2-yl]tetrahydropyran-2-yl]oxazole] came in with an EC50 of 0.05 to 0.5 µM.
`Cc1nc2nc([C@H]3CCO[C@@H](c4cnc(C5CC5)o4)C3)nc(-c3ccc(F)cc3F)c2nc1C` [Example I-1699, 2-cyclopropyl-5-[(2R,4S)-4-[4-(2,4-difluorophenyl)-6,7-dimethyl-pteridin-2-yl]tetrahydropyran-2-yl]oxazole] returned an EC50 of 0.05 to 0.5 µM.
The compound `Cc1nc2nc([C@@H]3CCO[C@H](c4cnc(C5CC5)o4)C3)nc(-c3ccc(F)cc3F)c2nc1C` [Example I-1700, 2-cyclopropyl-5-[(2S,4R)-4-[4-(2,4-difluorophenyl)-6,7-dimethyl-pteridin-2-yl]tetrahydropyran-2-yl]oxazole] displayed a half-maximal effective concentration (EC50) of 0.05 to 0.5 µM.
For `Cc1nc2nc(N3C[C@@H](C4CC4)O[C@@H](c4cnn(C(F)F)c4)C3)nc(-c3ccc(C(F)(F)F)cc3F)c2nc1C` [Example I-1711, (2R,6S)-2-cyclopropyl-6-[1-(difluoromethyl)pyrazol-4-yl]-4-[4-[2-fluoro-4-(trifluoromethyl)phenyl]-6,7-dimethyl-pteridin-2-yl]morpholine], the EC50 is under 0.05 µM.
In turn, `Cc1nc2nc(N3C[C@@H](c4cnn(C(F)F)c4)O[C@@H](C4CC4)C3)nc(-c3ccc(C(F)(F)F)cc3F)c2nc1C` [Example I-1712, (2S,6R)-2-cyclopropyl-6-[1-(difluoromethyl)pyrazol-4-yl]-4-[4-[2-fluoro-4-(trifluoromethyl)phenyl]-6,7-dimethyl-pteridin-2-yl]morpholine] displayed a concentration for a half-maximal effect (EC50) of 0.05 to 0.5 µM.
In the case of `Cc1nc2nc(N3C[C@@H](C)O[C@@H](c4cnn(C5CC5)c4)C3)nc([C@H]3C[C@H](OC(F)(F)F)C3)c2nc1C` [Example I-1729, (2S,6R)-2-(1-cyclopropylpyrazol-4-yl)-4-[6,7-dimethyl-4-[3-(trifluoromethoxy)cyclobutyl]pteridin-2-yl]-6-methyl-morpholine], the EC50 is under 0.05 µM.
Regarding `COCn1cc([C@H]2CN(c3nc(-c4ccc(F)cc4F)c4nc(C)c(C)nc4n3)C[C@@H](C3CC3)O2)cn1` [Example I-1736, (2R,6S)-2-cyclopropyl-4-[4-(2,4-difluorophenyl)-6,7-dimethyl-pteridin-2-yl]-6-[1-(methoxymethyl)pyrazol-4-yl]morpholine], the EC50 was under 0.05 µM.
Compound `Cc1nc2nc([C@H]3CCO[C@@H](c4cnn(C5CC5)c4)C3)nc(-c3ccc(F)cc3F)c2nc1C1CCCCC1` [Example I-1744, 6-cyclohexyl-2-((2R,4S)-2-(1-cyclopropyl-1H-pyrazol-4-yl)tetrahydro-2H-pyran-4-yl)-4-(2,4-difluorophenyl)-7-methylpteridine] had an EC50 of 0.05 to 0.5 µM.
